# Laboratory results published in patent publication US20100035862A1, “NOVEL AZA-CYCLIC INDOLE-2-CARBOXAMIDES AND METHODS OF USE THEREOF” (ABBOTT LABORATORIES, priority 2008, published 2010).
# Target: T1, human α4β2 (Homo sapiens, UniProt P17787+P43681)
# T1 construct: expressed in transfected cells
# Assay: Calcium flux assay (FLIPR) in HEK 293 cells expressing NNR subtype; potentiation of submaximal agonist response
# Type: cell-based
# Details: α4β2 PAM; response to submaximal agonist (EC20-30%) such as nicotine
# From the text: One manner to characterize α4β2 PAM activity is by characterization in clonal cell lines (for example, human embryonic kidney 293 cells) expressing the human neuronal nicotinic acetylcholine receptor subtype α4β2, particularly by use of Fluorescent Image Plate Reader technology. Effects on calcium flux or membrane potential changes can be assessed. Such assays have been reported and further details for carrying out, the assays can be obtained in International Publication No. WO 2006/114400. Another method to identify and characterize allosteric modulator activity is by expressing the α4β2 subunits in Xenopus oocytes, and by measuring electrophysiological effects on ligand-evoked current responses as previously described in Curtis, L., et al., Molecular Pharmacology, 61: 127-135, 2002.
# To determine the effectiveness of representative compounds of this invention as ligands for α4β2 PAM activity, the compounds of the invention can be evaluated according to the Calcium Flux Assay described below.
# Calcium Flux Assays Using Cells Expressing NNR Subtypes
# Human embryonic kidney (HEK) 293 cells stably expressing human α4β2 or (3β4 combinations are grown to confluency in 162 cm^2 tissue culture flasks in DMEM media supplemented with 10% FBS and 25 μg/mL zeocin and 200 μg/mL hygromycin B. Cells expressing rat or ferret subunits may also be used. For assessing α3* or α7* selectivity, IMR-32 cells may also be used. IMR-32 neuroblastoma cells (ATCC) are grown to confluency in 162 cm^2 tissue culture flasks in minimum essential media supplemented with 10% FBS and 1 mM sodium pyruvate, 1% non-essential amino acids and 1% antibiotic-antimycotic. For the calcium flux assay, c cells are then dissociated using cell dissociation buffer and 100-150 μL per well of 3.5×10^5 cells/mL cell suspension (˜50,000-100,000 cells/well) was plated into 96-well black plates (poly-D-lysine precoated) with clear bottom and maintained for 24-48 hours in a tissue culture incubator at 37° C. under an atmosphere of 5% CO2: 95% air. Other clonal cell lines or primary cell cultures that express endogenous α4* nicotinic receptors may also be used in this assay. Calcium flux was measured using calcium-3 assay kit (Molecular Devices, Sunnyvale, Calif.) or fluo-4 (Invitrogen). A stock solution of the dye was prepared by dissolving each vial supplied by the vendor in Hank's balanced-salt solution buffer (HBSS) or 150 mM NMDG, 20 mM calcium chloride containing 10 mM HEPES. The stock-solution was diluted 1:20 using a the same buffer before use. The growth media was removed from the cells. The cells were loaded with 100 μL of the dye per well and incubated at room temperature for up to one hour for HEK 293 clonal stable cell lines or 30 minutes-45 minutes at 37° C. for IMR-32 cells. Fluorescence measurements were read simultaneously from all the wells by a Fluorometic Imaging Plate Reader (FLIPR) at an excitation wavelength of 480 nm and an emission wavelength of 520 nm. Baseline fluorescence was measured for the first 6 seconds at which 3× concentrations of modulator/test compounds were added to the cell plate at 50 μL and incubated for five minutes. The fluorescence intensity was captured every second for the first 1 minute followed by every 5 seconds for an additional 4 minutes. This procedure was followed by 50 μL of 4× concentration of agonist and readings were taken for a period of 3-5 minutes as described above.
# The ability of test compounds to positively modulate the response (i.e., increase the response) induced by a submaximal concentration of agonist (EC20-30%) such as nicotine is measured. Potentiation is measured based on peak fluorescence responses. by screening compounds at fixed concentrations or in a concentration-response manner to derive, EC50 values. The concentration dependence of changes in fluorescence responses is fitted by nonlinear regression analysis (GraphPad Prism, San Diego, Calif.) to obtain EC50 values. […]
# T1 sequence (P43681 29-627 limits assumed): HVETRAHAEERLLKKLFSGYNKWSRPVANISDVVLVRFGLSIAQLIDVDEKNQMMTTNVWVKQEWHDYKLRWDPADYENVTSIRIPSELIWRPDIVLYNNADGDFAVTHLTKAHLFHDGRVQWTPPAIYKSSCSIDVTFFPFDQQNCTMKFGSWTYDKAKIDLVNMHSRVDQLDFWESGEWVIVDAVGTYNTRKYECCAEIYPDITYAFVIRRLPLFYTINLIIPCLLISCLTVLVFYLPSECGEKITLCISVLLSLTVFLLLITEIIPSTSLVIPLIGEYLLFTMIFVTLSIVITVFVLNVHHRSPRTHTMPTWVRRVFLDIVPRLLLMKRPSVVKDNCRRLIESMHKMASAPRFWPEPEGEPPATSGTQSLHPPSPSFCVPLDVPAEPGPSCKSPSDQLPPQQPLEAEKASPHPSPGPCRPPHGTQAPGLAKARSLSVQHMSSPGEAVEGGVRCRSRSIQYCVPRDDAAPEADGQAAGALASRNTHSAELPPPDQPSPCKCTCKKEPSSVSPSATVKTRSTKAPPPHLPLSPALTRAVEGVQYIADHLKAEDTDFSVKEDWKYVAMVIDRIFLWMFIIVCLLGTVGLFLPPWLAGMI
# T1 sequence (P17787 26-502): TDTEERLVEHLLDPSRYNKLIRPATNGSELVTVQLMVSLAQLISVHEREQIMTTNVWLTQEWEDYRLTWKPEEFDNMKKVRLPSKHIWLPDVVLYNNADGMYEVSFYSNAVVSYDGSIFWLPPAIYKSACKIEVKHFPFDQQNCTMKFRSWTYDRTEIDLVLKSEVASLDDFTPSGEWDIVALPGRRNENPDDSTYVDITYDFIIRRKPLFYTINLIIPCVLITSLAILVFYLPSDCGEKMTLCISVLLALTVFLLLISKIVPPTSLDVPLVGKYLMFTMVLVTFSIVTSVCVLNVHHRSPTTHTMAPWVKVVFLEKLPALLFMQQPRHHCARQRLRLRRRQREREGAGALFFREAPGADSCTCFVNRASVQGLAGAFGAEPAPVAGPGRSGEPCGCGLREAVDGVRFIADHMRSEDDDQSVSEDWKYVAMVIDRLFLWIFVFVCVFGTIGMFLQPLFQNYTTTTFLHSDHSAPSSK
row,SMILES,Activity (allostertc effects—potentiation of fluorescence responses)
1,"CC(C)(C)c1ccc2cc(C(=O)N[C@@H]3CCNC3)[nH]c2c1 [Example 10, (R)-6-tert-butyl-N-(pyrrolidin-3-yl)-1H-indole-2-carboxamide]",a (“a” denotes active compounds (>100%))
2,CN1CC[C@@H](NC(=O)c2cc3cc(Cl)ccc3[nH]2)C1 [Example 31],a (“a” denotes active compounds (>100%))
3,"Cc1ccc(C)c2c(C)c(C(=O)N[C@@H]3CCCN(C)C3)[nH]c12.Cc1ccc(S(=O)(=O)O)cc1 [Example 109, (R)-3,4,7-trimethyl-N-(1-methylpiperidin-3-yl)-1H-indole-2-carboxamide tosylate]",a (“a” denotes active compounds (>100%))
4,"O=C(N[C@@H]1CCCNC1)c1cc2c(Cl)cc(Cl)cc2[nH]1 [Example 114, (R)-4,6-dichloro-N-(piperidin-3-yl)-1H-indole-2-carboxamide]",a (“a” denotes active compounds (>100%))

# Next, values leading:
row,Activity (allostertc effects—potentiation of fluorescence responses),SMILES
1,a (“a” denotes active compounds (>100%)),"Cc1ccc(C)c2c(C)c(C(=O)N[C@@H]3CCNC3)[nH]c12 [Example 1, (R)-3,4,7-trimethyl-N-(pyrrolidin-3-yl)-1H-indole-2-carboxamide]"
2,a (“a” denotes active compounds (>100%)),"O=C(N[C@@H]1CCNC1)c1cc2ccc(-c3ccccc3)cc2[nH]1 [Example 13, (R)-6-phenyl-N-(pyrrolidin-3-yl)-1H-indole-2-carboxamide]"
3,a (“a” denotes active compounds (>100%)),"CN1CC[C@H](NC(=O)c2cc3c(Cl)cc(Cl)cc3[nH]2)C1 [Example 40, (S)-4,6-dichloro-N-(1-methylpyrrolidin-3-yl)-1H-indole-2-carboxamide]"
4,a (“a” denotes active compounds (>100%)),"Cc1ccc(C)c2c(C)c(C(=O)N[C@@H]3CCCNC3)[nH]c12 [Example 108, (R)-3,4,7-trimethyl-N-(piperidin-3-yl)-1H-indole-2-carboxamide]"
